Assay [1] has as its target JAK2/JAK2 homdimeric complex (Homo sapiens (Human), UniProt O60674). Put plainly: GM-CSF Induced pSTAT5 in Human PBMC. It is filed as cell-based. The settings on record: GM-CSF 5 ng/mL for 20 minutes, pSTAT5 by MSD, read-out: PBMC_GMCSF_pSTAT5 IC50.
For assay [2], the target named is human TYK2 (JH2domain-pseudokinase) (Homo sapiens (Human), UniProt P29597). Put plainly: TYK2 JH2 Domain Binding Assay (KINOMEscan). The gist of the method:
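Competition binding of an NFkB-DBD fusion of human TYK2 JH2 (G556–D888), expressed in HEK293 and used as crude extract at <0.1 nM, against immobilized ligand beads; 1 h at room temperature in PBS/Tween/DTT/BSA buffer, 0.9% DMSO.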

A further assay addresses Tyk2 kinase domain (DH1) (Homo sapiens (Human), UniProt P29597). Put plainly: Tyk2 Radioactive Kinase Assay. It is filed as biochemical. The note with it: compound at 10 μM; ATP 10 μM; read-out: Tyk2 JH1% Inhibition @ 10 μM. The essentials:
(§1)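 Compounds were tested at a single concentration of 10 μM in a radiometric kinase format against each isolated kinase domain. Activity is reported as percent inhibition at that concentration.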

The next assay concerns the target JAK2 kinase domain (JH1) (Homo sapiens (Human), UniProt O60674). The experiment in a line: JAK2 Radioactive Kinase Assay. Format: biochemical. The settings on record: compound at 10 μM; ATP 10 μM; read-out: JAK2 JH1% Inhibition @ 10 μM. The essentials: as §1
Assay [3] concerns the target Tyk2/JAK2 (heterodimeric complex) (Homo sapiens (Human), UniProt P29597). Put plainly: IL-12 Induced pSTAT4 in Human PBMC. It is filed as cell-based. The settings on record: 1.7 ng/mL IL-12. The source says:
The IL-12 Induced pSTAT4 assay evaluates the inhibition of IL-12 induced STAT4 phophorylation mediated by Tyk2/JAK2 (heterodimeric complex).

Some results are limits rather than exact numbers.

Sequence of Tyk2 kinase domain (DH1) (P29597 897-1176): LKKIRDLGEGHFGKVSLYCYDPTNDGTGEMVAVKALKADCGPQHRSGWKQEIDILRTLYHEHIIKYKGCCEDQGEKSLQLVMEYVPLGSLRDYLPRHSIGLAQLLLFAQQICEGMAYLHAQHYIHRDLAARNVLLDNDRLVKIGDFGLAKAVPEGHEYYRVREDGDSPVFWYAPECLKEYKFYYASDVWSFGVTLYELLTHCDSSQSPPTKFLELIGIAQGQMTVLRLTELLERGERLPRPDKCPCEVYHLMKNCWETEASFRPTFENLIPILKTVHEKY
Sequence of Tyk2/JAK2 (heterodimeric complex) (P29597 whole entry, other chains not shown): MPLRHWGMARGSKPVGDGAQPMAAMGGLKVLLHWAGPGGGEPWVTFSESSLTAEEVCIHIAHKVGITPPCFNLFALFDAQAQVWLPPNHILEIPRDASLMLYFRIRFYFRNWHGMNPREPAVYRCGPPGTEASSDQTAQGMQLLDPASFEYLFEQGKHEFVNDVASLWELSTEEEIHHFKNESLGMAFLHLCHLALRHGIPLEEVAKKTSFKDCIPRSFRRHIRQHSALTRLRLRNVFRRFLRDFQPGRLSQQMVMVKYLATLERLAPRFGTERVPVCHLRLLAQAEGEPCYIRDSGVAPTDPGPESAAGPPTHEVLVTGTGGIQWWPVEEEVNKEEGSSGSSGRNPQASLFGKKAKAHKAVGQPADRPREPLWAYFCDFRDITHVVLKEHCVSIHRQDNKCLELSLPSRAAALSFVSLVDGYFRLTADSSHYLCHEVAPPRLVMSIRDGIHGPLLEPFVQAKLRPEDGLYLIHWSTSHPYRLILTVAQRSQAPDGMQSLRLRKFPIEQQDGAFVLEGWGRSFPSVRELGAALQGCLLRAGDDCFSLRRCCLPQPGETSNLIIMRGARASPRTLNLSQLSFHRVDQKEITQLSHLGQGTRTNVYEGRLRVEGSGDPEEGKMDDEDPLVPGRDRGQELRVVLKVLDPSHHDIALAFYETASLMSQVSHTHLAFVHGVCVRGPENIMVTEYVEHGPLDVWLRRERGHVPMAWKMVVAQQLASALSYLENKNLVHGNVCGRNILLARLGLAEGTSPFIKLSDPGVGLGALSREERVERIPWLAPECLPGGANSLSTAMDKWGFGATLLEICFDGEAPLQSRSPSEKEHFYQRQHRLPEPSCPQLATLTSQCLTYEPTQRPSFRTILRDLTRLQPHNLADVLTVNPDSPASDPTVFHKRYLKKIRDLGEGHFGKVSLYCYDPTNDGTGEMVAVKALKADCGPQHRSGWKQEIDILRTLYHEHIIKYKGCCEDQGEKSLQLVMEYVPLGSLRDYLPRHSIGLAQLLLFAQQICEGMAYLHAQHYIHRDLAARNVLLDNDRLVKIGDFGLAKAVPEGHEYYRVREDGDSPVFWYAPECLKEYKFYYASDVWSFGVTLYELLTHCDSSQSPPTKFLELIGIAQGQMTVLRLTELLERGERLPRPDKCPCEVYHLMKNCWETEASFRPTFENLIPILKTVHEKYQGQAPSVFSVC
Sequence of JAK2 kinase domain (JH1) (O60674 849-1124): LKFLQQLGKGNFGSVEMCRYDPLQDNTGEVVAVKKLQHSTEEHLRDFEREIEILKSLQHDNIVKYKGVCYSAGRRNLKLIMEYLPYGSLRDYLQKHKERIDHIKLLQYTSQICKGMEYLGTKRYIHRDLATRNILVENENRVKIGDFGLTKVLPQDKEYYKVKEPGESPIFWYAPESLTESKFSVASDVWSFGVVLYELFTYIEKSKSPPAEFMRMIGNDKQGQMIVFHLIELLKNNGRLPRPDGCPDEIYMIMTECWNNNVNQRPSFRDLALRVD
Sequence of human TYK2 (JH2domain-pseudokinase) (P29597 556-888): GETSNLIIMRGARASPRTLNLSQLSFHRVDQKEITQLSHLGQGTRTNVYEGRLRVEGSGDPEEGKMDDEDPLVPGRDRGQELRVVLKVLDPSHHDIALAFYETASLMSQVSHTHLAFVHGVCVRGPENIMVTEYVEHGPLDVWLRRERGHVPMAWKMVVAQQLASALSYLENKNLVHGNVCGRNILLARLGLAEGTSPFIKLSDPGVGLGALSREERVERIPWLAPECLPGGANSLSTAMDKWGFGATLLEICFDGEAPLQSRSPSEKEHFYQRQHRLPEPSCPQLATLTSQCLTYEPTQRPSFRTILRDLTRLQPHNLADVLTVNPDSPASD
Sequence of JAK2/JAK2 homdimeric complex (O60674 whole entry, the tested form may be a part): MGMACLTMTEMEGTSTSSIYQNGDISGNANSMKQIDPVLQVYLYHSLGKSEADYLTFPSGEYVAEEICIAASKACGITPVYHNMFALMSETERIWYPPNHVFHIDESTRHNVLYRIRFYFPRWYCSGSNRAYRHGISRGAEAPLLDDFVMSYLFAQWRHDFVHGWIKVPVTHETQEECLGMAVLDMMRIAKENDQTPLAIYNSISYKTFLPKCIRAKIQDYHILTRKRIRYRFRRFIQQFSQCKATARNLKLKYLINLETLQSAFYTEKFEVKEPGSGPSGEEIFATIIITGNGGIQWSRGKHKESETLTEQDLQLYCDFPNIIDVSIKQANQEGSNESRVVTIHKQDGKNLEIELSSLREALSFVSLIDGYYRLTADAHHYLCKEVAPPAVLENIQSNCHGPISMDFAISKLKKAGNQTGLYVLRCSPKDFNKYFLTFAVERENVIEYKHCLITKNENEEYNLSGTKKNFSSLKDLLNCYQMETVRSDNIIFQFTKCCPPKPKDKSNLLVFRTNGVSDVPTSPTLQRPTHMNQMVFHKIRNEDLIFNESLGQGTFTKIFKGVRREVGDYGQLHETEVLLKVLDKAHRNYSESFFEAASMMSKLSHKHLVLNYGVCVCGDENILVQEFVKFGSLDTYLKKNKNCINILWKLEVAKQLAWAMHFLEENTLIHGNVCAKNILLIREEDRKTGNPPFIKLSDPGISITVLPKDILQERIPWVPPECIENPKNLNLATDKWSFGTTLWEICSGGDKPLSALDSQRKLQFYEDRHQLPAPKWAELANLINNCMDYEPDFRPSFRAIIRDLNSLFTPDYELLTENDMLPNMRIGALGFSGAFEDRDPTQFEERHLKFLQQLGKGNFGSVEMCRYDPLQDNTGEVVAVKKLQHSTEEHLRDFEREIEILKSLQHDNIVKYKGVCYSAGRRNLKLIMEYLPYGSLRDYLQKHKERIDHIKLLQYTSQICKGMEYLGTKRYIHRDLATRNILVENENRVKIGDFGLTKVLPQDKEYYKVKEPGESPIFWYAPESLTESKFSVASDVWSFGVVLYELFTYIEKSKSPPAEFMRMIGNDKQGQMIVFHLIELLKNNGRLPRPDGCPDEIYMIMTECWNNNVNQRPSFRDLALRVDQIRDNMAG
Sequence of JAK2/JAK2 homdimeric complex (P32927 17-897 partner): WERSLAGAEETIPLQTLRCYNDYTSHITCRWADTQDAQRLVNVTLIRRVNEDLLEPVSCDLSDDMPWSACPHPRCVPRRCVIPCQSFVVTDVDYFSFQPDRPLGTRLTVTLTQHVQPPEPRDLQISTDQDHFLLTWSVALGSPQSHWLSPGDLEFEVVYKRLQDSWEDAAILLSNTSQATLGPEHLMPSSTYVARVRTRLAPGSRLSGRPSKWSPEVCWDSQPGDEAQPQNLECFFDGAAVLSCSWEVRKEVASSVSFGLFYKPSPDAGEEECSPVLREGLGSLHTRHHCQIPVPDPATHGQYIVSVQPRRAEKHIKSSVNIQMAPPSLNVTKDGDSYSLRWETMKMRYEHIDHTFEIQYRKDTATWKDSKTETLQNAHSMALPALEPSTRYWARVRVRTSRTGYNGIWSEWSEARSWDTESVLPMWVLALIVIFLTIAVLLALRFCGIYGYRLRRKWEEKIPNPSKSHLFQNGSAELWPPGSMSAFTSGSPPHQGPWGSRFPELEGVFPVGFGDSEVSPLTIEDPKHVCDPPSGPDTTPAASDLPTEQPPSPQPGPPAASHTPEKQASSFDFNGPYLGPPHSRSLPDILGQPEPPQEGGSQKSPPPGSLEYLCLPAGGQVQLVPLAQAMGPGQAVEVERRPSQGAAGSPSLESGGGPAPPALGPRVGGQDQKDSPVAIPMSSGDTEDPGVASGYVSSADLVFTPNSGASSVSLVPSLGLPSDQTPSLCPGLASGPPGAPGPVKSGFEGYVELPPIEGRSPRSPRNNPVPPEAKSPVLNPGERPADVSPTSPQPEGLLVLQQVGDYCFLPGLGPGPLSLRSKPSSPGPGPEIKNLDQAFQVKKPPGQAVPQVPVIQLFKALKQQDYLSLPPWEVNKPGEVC

The term IC50 denotes the concentration needed to halve the response being measured. Broadly, the Kd is a measure of binding affinity in units of concentration. Read a low Kd as higher affinity. As a reminder, the inhibition is the relative decrease from the control value, in per cent. In the case of `CNc1cc(Nc2cc(Cl)cn(-c3ccnc(C)n3)c2=O)nc2c(C(=O)N[C@H]3C[C@H]3F)cnn12` [I-317], the concentration for half-maximal inhibition (IC50) is above 2500 nM in assay [1] and below 100 nM in assay [3]. This compound gave a Kd in assay [2] below 0.2 nM. The inhibition at 10 µM on Tyk2 kinase domain (DH1) and at JAK2 kinase domain (JH1) was below 50% throughout.
As for `CNc1cc(Nc2cc(Cl)cn(-c3cnc(C(=O)N(C)C)cn3)c2=O)nc2c(C(=O)NC3CC3)cnn12` [I-318], the IC50 is above 2500 nM in assay [1] and below 100 nM in assay [3]. The Kd in assay [2] was below 0.2 nM. Also, the inhibition at 10 µM at Tyk2 kinase domain (DH1) and on JAK2 kinase domain (JH1) was below 50% in each case.
As for `CNc1cc(Nc2cc(Cl)cn(-c3cnc(C(=O)N(C)C)cn3)c2=O)nc2c(C(=O)N[C@H]3C[C@H]3F)cnn12` [I-319], the results for the IC50 in assay [1] and in assay [3] were above 2500 nM and below 100 nM, respectively. In assay [2], the Kd was below 0.2 nM. Moreover, the inhibition at 10 µM on Tyk2 kinase domain (DH1) and on JAK2 kinase domain (JH1) was below 50% throughout.
As for `[2H]C([2H])([2H])Oc1ncccc1Nc1cc(NC)n2ncc(C(=O)N[C@H]3C[C@H](O)C3)c2n1` [I-321, N-((1r, 3r)-3-hydroxycyclobutyl)-5-((2-(methoxy-d3)pyridin-3-yl)amino)-7-(methylamino)pyrazolo[1,5-a]pyrimidine-3-carboxamide], the IC50 is above 2500 nM in assay [1] and below 100 nM in assay [3]. For the same compound, the Kd in assay [2] was below 0.2 nM. The inhibition at 10 µM on Tyk2 kinase domain (DH1) and on JAK2 kinase domain (JH1) was below 50% throughout.
`CNc1cc(Nc2cc(Cl)cn(-c3ncc(C)s3)c2=O)nc2c(C(=O)N[C@H]3C[C@H]3F)cnn12` [I-323]: the IC50 in assay [1] was above 2500 nM; in assay [3] it was below 100 nM. Also, in assay [2], the Kd is below 0.2 nM. Moreover, the inhibition at 10 µM on Tyk2 kinase domain (DH1) and at JAK2 kinase domain (JH1) was below 50% each time.
`CNc1cc(Nc2cc(Cl)cn(-c3cnn(C4CC4)c3C)c2=O)nc2c(C(=O)N[C@H]3C[C@H]3F)cnn12` [I-326]: the IC50 in assay [1] is above 50000 nM; in assay [3] it was below 100 nM. In assay [2], this compound yielded a Kd below 0.2 nM. Moreover, the inhibition at 10 µM on Tyk2 kinase domain (DH1) and at JAK2 kinase domain (JH1) was below 50% throughout.
Regarding `CNc1cc(Nc2cccn(C3CCOCC3)c2=O)nc2c(C(=O)NC3CC3)cnn12` [I-329], the IC50 in assay [1] was above 2500 nM; in assay [3] it was below 100 nM. This compound yielded a Kd in assay [2] below 0.2 nM. The inhibition at 10 µM at Tyk2 kinase domain (DH1) and on JAK2 kinase domain (JH1) was below 50% throughout.
In the case of `CNc1cc(Nc2cccn(C3CCOCC3)c2=O)nc2c(C(=O)N[C@H]3C[C@H]3F)cnn12` [I-330], the IC50 in assay [1] is above 2500 nM; in assay [3] it was below 100 nM. The Kd in assay [2] was below 0.2 nM. Also, the inhibition at 10 µM on Tyk2 kinase domain (DH1) and on JAK2 kinase domain (JH1) was below 50% throughout.
Turning to `CNc1cc(Nc2cc(Cl)cn(-c3ccn(C4CC4)n3)c2=O)nc2c(C(=O)NC3CC3)cnn12` [I-331], the IC50 in assay [1] was above 12500 nM; in assay [3] it was below 100 nM. Further, in assay [2], the Kd is below 0.2 nM. Moreover, the inhibition at 10 µM on Tyk2 kinase domain (DH1) and on JAK2 kinase domain (JH1) was below 50% each time.
As for `CNc1cc(Nc2cc(Cl)cn(-c3ccn(C4CC4)n3)c2=O)nc2c(C(=O)N[C@H]3C[C@H]3F)cnn12` [I-332], the IC50 in assay [1] is above 2500 nM; in assay [3], below 100 nM. In addition, the Kd in assay [2] was below 0.2 nM. The inhibition at 10 µM at Tyk2 kinase domain (DH1) and on JAK2 kinase domain (JH1) was below 50% in each case.
Take `CNc1cc(Nc2cc(Cl)cn(-c3ccc(C4CC4)nn3)c2=O)nc2c(C(=O)NC3CC3)cnn12` [I-333]: the IC50 in assay [1] is above 12500 nM; in assay [3], below 100 nM. For the same compound, the Kd in assay [2] is below 0.2 nM. Moreover, the inhibition at 10 µM at Tyk2 kinase domain (DH1) and at JAK2 kinase domain (JH1) was below 50% throughout.
Regarding `CNc1cc(Nc2cc(Cl)cn(-c3ccc(C4CC4)nn3)c2=O)nc2c(C(=O)N[C@H]3C[C@H]3F)cnn12` [I-334], the IC50 is above 50000 nM in assay [1] and below 100 nM in assay [3]. The compound further displayed a Kd in assay [2] below 0.2 nM. Further, the inhibition at 10 µM at Tyk2 kinase domain (DH1) and on JAK2 kinase domain (JH1) was below 50% in each case.

(Values after patent US10508120B2, “TYK2 inhibitors and uses thereof” (Nimbus Lakshmi, Inc., priority 2017, dated 2019).)
